Values joined by “and” are separate entries in the source; they are usually repeats but may differ in a detail not shown here. Identical values can stand only once. Like-named read-outs stand apart in the source and are kept apart here.
Test: Mouse pharmacokinetics in CD-1 mice (blood, kidney, liver, lung)
Format: in vivo
Method: For the PK study, a total of 42 male CD-1 mice weighing ~20-35 g were acquired from Lingchang/Vital River Laboratory Animal Co., Ltd. (Shanghai/Beijing, P.R. China) and divided into 2 treatment groups. […] was dosed with one low dose (1 mg/kg) and one high dose group (20 mg/kg). For the low-dose groups, nine animals were required for organ quantification with termination at 24 hours. For the high-dose groups, 12 animals were required for organ quantification with termination at 48 hours. The animal was administered either 1 mg/kg or 20 mg/kg of formulation solution (10% HP-β-CD in acetate buffer at pH 4.0) by IV bolus through the left lateral tail vein injection. […] Blood samples were placed on wet ice, mixed, then frozen and stored in a freezer set to -60 °C or lower until analysis. After the blood samples were collected at the terminal time points, the animals were sacrificed, and the liver, lung and kidney were harvested. The tissues were rinsed in cold water and then blotted on filter papers, weighed and homogenized using pre-cooled water at the ratio of 1:4. The tissue homogenate samples were kept at -70 °C until analysis. […] Working standard solutions were spiked into 25 μL of blank matrix on the sample plate. […] The supernatant (20 μL) was transferred into the MS injection plate, then diluted with water before injection for LC-MS/MS analysis. The concentrations of […] were quantified by an LC-MS/MS method. The LC-MS/MS system was a Waters Acquity UPLC System (Milford, MA) coupled to a Sciex Triple Quad 6500 Plus mass spectrometer (AB Sciex, Foster City, CA). The aqueous mobile phase for the analysis was 0.1% formic acid and 2 mM ammonium formate in water/ACN (v:v, 95:5) (A), and the organic mobile phase was 0.1% formic acid and 2 mM ammonium formate in ACN/water (v:v, 95:5) (B). […] Column temperature was set at 50 °C. […] The flow rate was set at 0.7 mL/min. […] The lower limit of quantitation in all matrices was 5.1 ng/mL. The mean time concentration profile was generated for each group, and an overall AUC was then calculated with these sparse samples of rats and mice. […] The following parameters were estimated whenever possible: C0, Back-extrapolated concentration at time 0; Cmax, Maximum observed concentration; Tmax, Time of maximum observed concentration; AUC0-t, Area under the concentration-time curve from hour 0 to the last measurable concentration, estimated by the linear trapezoidal rule; AUC0-336, Area under the concentration-time curve from hour 0 to hour 336, estimated by the linear trapezoidal rule; DN AUC0-336, Dose normalized AUC0-336, calculated as AUC0-336/dose level; […] AUC0-∞ = AUC0-t + Ct/λz, where Ct is the last measurable concentration and λz is the elimination rate constant; t1/2, Elimination half-life, determined by ln(2)/λz; CL, Clearance, calculated as dose/AUC0-inf; Vd, Volume of distribution based on the terminal phase, calculated as: dose/(λz × AUC0-∞) Nominal doses and sampling times were used. […] Embedded zeros were excluded from kinetic analysis.

Cc1ncsc1-c1ccc(C(C)NC(=O)C2CC(O)CN2C(=O)C(c2cc(N3CCC(CN4CCC(OC5CC(Oc6cc(N7C8CCC7CN(c7cc(-c9ccccc9O)nnc7N)C8)ccn6)C5)CC4)CC3)no2)C(C)C)cc1 (stereo not shown) [A947]
concentration at 0.083 h (Blood, 0.083 h, 1 mg/kg IV, individual animals, read-out: Concentration (µM) from 1 mg/kg Dosing Blood): 0.351 µM and 0.406 µM
concentration at 8 h (Blood, 0.083 h, 20 mg/kg IV, individual animals, read-out: Concentration (µM) from 20 mg/kg Dosing Blood): 11.332 µM and 8.845 µM
concentration at 0.083 h (Blood, 0.25 h, 1 mg/kg IV, individual animals, read-out: Concentration (µM) from 1 mg/kg Dosing Blood): 0.084 µM and 0.113 µM
concentration at 8 h (Blood, 0.25 h, 20 mg/kg IV, individual animals, read-out: Concentration (µM) from 20 mg/kg Dosing Blood): 3.265 µM and 3.4 µM
concentration at 0.083 h (Blood, 0.5 h, 1 mg/kg IV, individual animals, read-out: Concentration (µM) from 1 mg/kg Dosing Blood): 0.044 µM and 0.066 µM
concentration at 8 h (Blood, 0.5 h, 20 mg/kg IV, individual animals, read-out: Concentration (µM) from 20 mg/kg Dosing Blood): 1.604 µM and 1.652 µM
concentration at 0.083 h (Blood, 1 h, 1 mg/kg IV, individual animals, read-out: Concentration (µM) from 1 mg/kg Dosing Blood): 0.02 µM and 0.026 µM
concentration at 8 h (Blood, 1 h, 20 mg/kg IV, individual animals, read-out: Concentration (µM) from 20 mg/kg Dosing Blood): 0.769 µM and 0.821 µM
concentration at 0.083 h (Blood, 2 h, 1 mg/kg IV, individual animals, read-out: Concentration (µM) from 1 mg/kg Dosing Blood): 0.009 µM and 0.013 µM
concentration at 8 h (Blood, 2 h, 20 mg/kg IV, individual animals, read-out: Concentration (µM) from 20 mg/kg Dosing Blood): 0.221 µM and 0.24 µM
Concentration (µM) from 1 mg/kg Dosing Blood (Blood, 4 h, 1 mg/kg IV, individual animals, BLOQ <5.1 ng/mL): BLOQ *
concentration at 0.083 h (Blood, 4 h, 1 mg/kg IV, individual animals, BLOQ <5.1 ng/mL, read-out: Concentration (µM) from 1 mg/kg Dosing Blood): 0.006 µM
concentration at 8 h (Blood, 4 h, 20 mg/kg IV, individual animals, read-out: Concentration (µM) from 20 mg/kg Dosing Blood): 0.212 µM and 0.306 µM and 0.093 µM and 0.117 µM and 0.098 µM and 0.1 µM
Concentration (µM) from 1 mg/kg Dosing Blood (Blood, 8 h, 1 mg/kg IV, individual animals, BLOQ <5.1 ng/mL): BLOQ *
concentration at 8 h (Blood, 8 h, 20 mg/kg IV, individual animals, read-out: Concentration (µM) from 20 mg/kg Dosing Blood): 0.067 µM and 0.056 µM and 0.036 µM and 0.037 µM
Concentration (µM) from 1 mg/kg Dosing Blood (Blood, 12 h, 1 mg/kg IV, individual animals, BLOQ <5.1 ng/mL): BLOQ *
concentration at 8 h (Blood, 12 h, 20 mg/kg IV, individual animals, read-out: Concentration (µM) from 20 mg/kg Dosing Blood): 0.015 µM and 0.017 µM
Concentration (µM) from 1 mg/kg Dosing Blood (Blood, 24 h, 1 mg/kg IV, individual animals, BLOQ <5.1 ng/mL): BLOQ *
Concentration (µM) from 20 mg/kg Dosing Blood (Blood, 24 h, 20 mg/kg IV, individual animals, BLOQ <5.1 ng/mL): BLOQ *
Concentration (µM) from 20 mg/kg Dosing Blood (Blood, 48 h, 20 mg/kg IV, individual animals, BLOQ <5.1 ng/mL): BLOQ *
concentration at 24 h (Kidney, 4 h, 1 mg/kg IV, individual animals, read-out: Concentration (µM) from 1 mg/kg Dosing Kidney): 0.541 µM and 0.391 µM
concentration at 8 h (Kidney, 4 h, 20 mg/kg IV, individual animals, read-out: Concentration (µM) from 20 mg/kg Dosing Kidney): 14.213 µM and 10.852 µM
concentration at 24 h (Kidney, 8 h, 1 mg/kg IV, individual animals, read-out: Concentration (µM) from 1 mg/kg Dosing Kidney): 0.341 µM and 0.338 µM
concentration at 8 h (Kidney, 8 h, 20 mg/kg IV, individual animals, read-out: Concentration (µM) from 20 mg/kg Dosing Kidney): 11.428 µM and 7.712 µM
concentration at 24 h (Kidney, 24 h, 1 mg/kg IV, individual animals, read-out: Concentration (µM) from 1 mg/kg Dosing Kidney): 0.025 µM and 0.027 µM
concentration at 8 h (Kidney, 24 h, 20 mg/kg IV, individual animals, read-out: Concentration (µM) from 20 mg/kg Dosing Kidney): 0.295 µM and 0.508 µM
concentration at 8 h (Kidney, 48 h, 20 mg/kg IV, individual animals, read-out: Concentration (µM) from 20 mg/kg Dosing Kidney): 0.083 µM and 0.066 µM
concentration at 24 h (Liver, 4 h, 1 mg/kg IV, individual animals, read-out: Concentration (µM) from 1 mg/kg Dosing Liver): 0.069 µM and 0.098 µM
concentration at 8 h (Liver, 4 h, 20 mg/kg IV, individual animals, read-out: Concentration (µM) from 20 mg/kg Dosing Liver): 66.456 µM and 51.09 µM and 27.754 µM
concentration at 24 h (Liver, 8 h, 1 mg/kg IV, individual animals, read-out: Concentration (µM) from 1 mg/kg Dosing Liver): 0.039 µM
concentration at 8 h (Liver, 8 h, 20 mg/kg IV, individual animals, read-out: Concentration (µM) from 20 mg/kg Dosing Liver): 18.535 µM and 24.009 µM
Concentration (µM) from 1 mg/kg Dosing Liver (Liver, 24 h, 1 mg/kg IV, individual animals, BLOQ <5.1 ng/mL): BLOQ *
concentration at 8 h (Liver, 24 h, 20 mg/kg IV, individual animals, read-out: Concentration (µM) from 20 mg/kg Dosing Liver): 8.297 µM and 9.7 µM
concentration at 8 h (Liver, 48 h, 20 mg/kg IV, individual animals, read-out: Concentration (µM) from 20 mg/kg Dosing Liver): 1.133 µM and 2.43 µM and 2.132 µM
concentration at 24 h (Lung, 4 h, 1 mg/kg IV, individual animals, read-out: Concentration (µM) from 1 mg/kg Dosing Lung): 0.085 µM and 0.099 µM
concentration at 8 h (Lung, 4 h, 20 mg/kg IV, individual animals, read-out: Concentration (µM) from 20 mg/kg Dosing Lung): 6.463 µM and 5.695 µM
concentration at 24 h (Lung, 8 h, 1 mg/kg IV, individual animals, read-out: Concentration (µM) from 1 mg/kg Dosing Lung): 0.066 µM and 0.071 µM
concentration at 8 h (Lung, 8 h, 20 mg/kg IV, individual animals, read-out: Concentration (µM) from 20 mg/kg Dosing Lung): 2.286 µM and 3.054 µM
concentration at 24 h (Lung, 24 h, 1 mg/kg IV, individual animals, read-out: Concentration (µM) from 1 mg/kg Dosing Lung): 0.011 µM and 0.016 µM
concentration at 8 h (Lung, 24 h, 20 mg/kg IV, individual animals, read-out: Concentration (µM) from 20 mg/kg Dosing Lung): 0.718 µM and 0.295 µM and 0.794 µM
concentration at 8 h (Lung, 48 h, 20 mg/kg IV, individual animals, read-out: Concentration (µM) from 20 mg/kg Dosing Lung): 0.36 µM and 0.211 µM and 1.402 µM
half-life (male, CD-1, mouse, blood and tissues (kidney, liver, lung), iv, CD-1 mice IV, dose = c0, matrix = c1 of the line): 10 to 15 h
concentration at 0.25 h (male, CD-1, mouse, blood, intravenous, 1 mg/kg, Blood, 0.25 h, 1 mg/kg IV, individual animals, read-out: Concentration (µM) from 1 mg/kg Dosing Blood): 0.089 µM
concentration at 0.25 h (male, CD-1, mouse, blood, intravenous, 1 mg/kg, Blood, 0.25 h, 1 mg/kg IV, mean, read-out: Concentration (µM) from 1 mg/kg Dosing Blood): 0.095 µM
concentration at 0.5 h (male, CD-1, mouse, blood, intravenous, 1 mg/kg, Blood, 0.5 h, 1 mg/kg IV, individual animals, read-out: Concentration (µM) from 1 mg/kg Dosing Blood): 0.055 µM
concentration at 0.5 h (male, CD-1, mouse, blood, intravenous, 1 mg/kg, Blood, 0.5 h, 1 mg/kg IV, mean, read-out: Concentration (µM) from 1 mg/kg Dosing Blood): 0.055 µM
concentration at 1 h (male, CD-1, mouse, blood, intravenous, 1 mg/kg, Blood, 1 h, 1 mg/kg IV, individual animals, read-out: Concentration (µM) from 1 mg/kg Dosing Blood): 0.027 µM
concentration at 1 h (male, CD-1, mouse, blood, intravenous, 1 mg/kg, Blood, 1 h, 1 mg/kg IV, mean, read-out: Concentration (µM) from 1 mg/kg Dosing Blood): 0.024 µM
concentration at 2 h (male, CD-1, mouse, blood, intravenous, 1 mg/kg, Blood, 2 h, 1 mg/kg IV, individual animals, read-out: Concentration (µM) from 1 mg/kg Dosing Blood): 0.012 µM
concentration at 2 h (male, CD-1, mouse, blood, intravenous, 1 mg/kg, Blood, 2 h, 1 mg/kg IV, mean, read-out: Concentration (µM) from 1 mg/kg Dosing Blood): 0.011 µM
concentration at 12 h (male, CD-1, mouse, blood, intravenous, 20 mg/kg, Blood, 12 h, 20 mg/kg IV, individual animals, read-out: Concentration (µM) from 20 mg/kg Dosing Blood): 0.019 µM
concentration at 12 h (male, CD-1, mouse, blood, intravenous, 20 mg/kg, Blood, 12 h, 20 mg/kg IV, mean, read-out: Concentration (µM) from 20 mg/kg Dosing Blood): 0.017 µM
concentration at 24 h (male, CD-1, mouse, blood, intravenous, 20 mg/kg, Blood, 24 h, 20 mg/kg IV, individual animals, BLOQ <5.1 ng/mL, read-out: Concentration (µM) from 20 mg/kg Dosing Blood): 0.007 µM
concentration at 24 h (male, CD-1, mouse, blood, intravenous, 20 mg/kg, Blood, 24 h, 20 mg/kg IV, mean, read-out: Concentration (µM) from 20 mg/kg Dosing Blood): 0.007 µM
Vd (male, CD-1, mouse, blood, iv, CD-1 mice IV, dose = c0): 20 to 23 L/kg
concentration at 0.083 h (male, CD-1, mouse, in vivo, 1 mg/kg, Blood, 0.083 h, 1 mg/kg IV, individual animals, read-out: Concentration (µM) from 1 mg/kg Dosing Blood): 0.338 µM
concentration at 0.083 h (male, CD-1, mouse, in vivo, 1 mg/kg, Blood, 0.083 h, 1 mg/kg IV, mean, read-out: Concentration (µM) from 1 mg/kg Dosing Blood): 0.365 µM
concentration at 4 h (male, CD-1, mouse, in vivo, 1 mg/kg, Blood, 4 h, 1 mg/kg IV, individual animals, BLOQ <5.1 ng/mL, read-out: Concentration (µM) from 1 mg/kg Dosing Blood): 0.005 µM

Source: PMC11099041, “Tissue distribution and retention drives efficacy of rapidly clearing VHL-based PROTACs” (Communications Medicine, 2024)
